Laboratory results taken from patent US20250163056A1, “NONMUSCLE MYOSIN II INHIBITORS” (The University of Florida Research Foundation, Inc., priority 2018, published 2025).

Tests used:
Bovine cardiac myosin = Bovine cardiac myosin (Bos taurus (Bovine), UniProt Q9BE39); assay: Cardiac muscle myosin II actin-activated ATPase assay (NADH-coupled); assay type: biochemical; design: key to Ratio CMMII:NMII Ki/EC50: NMII-sel: no Ki value for cardiac myosin II could be determined; the compounds had no detectable inhibitory properties versus the cardiac myosin II; settings: for Ki: 300 nM cardiac myosin, 10 μM actin, 25° C., read-out: CMMII KI; for Ratio CMMII:NMII Ki/EC50: cardiac myosin II Ki over nonmuscle myosin II EC50
Method in brief: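 NADH-coupled (PK/LDH) assay at 25° C: 300 nM bovine cardiac myosin, 10 μM rabbit F-actin, 1 mM ATP, 1 mM PEP, 220 μM NADH, MOPS pH 7.0, 0.5% DMSO. NADH fluorescence was followed for 30 min; Ki values came from 16-point triplicate data (top 50 uM) fitted to a quadratic one-to-one binding model.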

[1] = Photostability, percentage remaining undegraded under illumination or in the dark; settings: for Photostability 4 hours: percentage remaining undegraded after 4 hours illumination; for Photostability 24 hours: percentage remaining undegraded after 24 hours illumination; for Photostability Dark (24 h): percentage remaining undegraded in the dark
Rabbit skeletal myosin = assay: Skeletal muscle myosin II actin-activated ATPase assay; assay type: biochemical; settings: 20 nM skeletal muscle myosin II; read-out: SKMMII KI
Method in brief: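 NADH-coupled (PK/LDH) actin-activated ATPase at 25 °C with 20 nM rabbit skeletal myosin II, 10 μM F-actin, 1 mM ATP, 1 mM PEP, 220 μM NADH in MOPS pH 7.0, MgCl2, EGTA, BSA, DTT, 0.5% DMSO. NADH fluorescence followed 30 min; inhibitory constants from 16-point triplicate curves (top 50 uM), quadratic one-to-one fit.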

Sequence of Bovine cardiac myosin (Q9BE39 whole entry): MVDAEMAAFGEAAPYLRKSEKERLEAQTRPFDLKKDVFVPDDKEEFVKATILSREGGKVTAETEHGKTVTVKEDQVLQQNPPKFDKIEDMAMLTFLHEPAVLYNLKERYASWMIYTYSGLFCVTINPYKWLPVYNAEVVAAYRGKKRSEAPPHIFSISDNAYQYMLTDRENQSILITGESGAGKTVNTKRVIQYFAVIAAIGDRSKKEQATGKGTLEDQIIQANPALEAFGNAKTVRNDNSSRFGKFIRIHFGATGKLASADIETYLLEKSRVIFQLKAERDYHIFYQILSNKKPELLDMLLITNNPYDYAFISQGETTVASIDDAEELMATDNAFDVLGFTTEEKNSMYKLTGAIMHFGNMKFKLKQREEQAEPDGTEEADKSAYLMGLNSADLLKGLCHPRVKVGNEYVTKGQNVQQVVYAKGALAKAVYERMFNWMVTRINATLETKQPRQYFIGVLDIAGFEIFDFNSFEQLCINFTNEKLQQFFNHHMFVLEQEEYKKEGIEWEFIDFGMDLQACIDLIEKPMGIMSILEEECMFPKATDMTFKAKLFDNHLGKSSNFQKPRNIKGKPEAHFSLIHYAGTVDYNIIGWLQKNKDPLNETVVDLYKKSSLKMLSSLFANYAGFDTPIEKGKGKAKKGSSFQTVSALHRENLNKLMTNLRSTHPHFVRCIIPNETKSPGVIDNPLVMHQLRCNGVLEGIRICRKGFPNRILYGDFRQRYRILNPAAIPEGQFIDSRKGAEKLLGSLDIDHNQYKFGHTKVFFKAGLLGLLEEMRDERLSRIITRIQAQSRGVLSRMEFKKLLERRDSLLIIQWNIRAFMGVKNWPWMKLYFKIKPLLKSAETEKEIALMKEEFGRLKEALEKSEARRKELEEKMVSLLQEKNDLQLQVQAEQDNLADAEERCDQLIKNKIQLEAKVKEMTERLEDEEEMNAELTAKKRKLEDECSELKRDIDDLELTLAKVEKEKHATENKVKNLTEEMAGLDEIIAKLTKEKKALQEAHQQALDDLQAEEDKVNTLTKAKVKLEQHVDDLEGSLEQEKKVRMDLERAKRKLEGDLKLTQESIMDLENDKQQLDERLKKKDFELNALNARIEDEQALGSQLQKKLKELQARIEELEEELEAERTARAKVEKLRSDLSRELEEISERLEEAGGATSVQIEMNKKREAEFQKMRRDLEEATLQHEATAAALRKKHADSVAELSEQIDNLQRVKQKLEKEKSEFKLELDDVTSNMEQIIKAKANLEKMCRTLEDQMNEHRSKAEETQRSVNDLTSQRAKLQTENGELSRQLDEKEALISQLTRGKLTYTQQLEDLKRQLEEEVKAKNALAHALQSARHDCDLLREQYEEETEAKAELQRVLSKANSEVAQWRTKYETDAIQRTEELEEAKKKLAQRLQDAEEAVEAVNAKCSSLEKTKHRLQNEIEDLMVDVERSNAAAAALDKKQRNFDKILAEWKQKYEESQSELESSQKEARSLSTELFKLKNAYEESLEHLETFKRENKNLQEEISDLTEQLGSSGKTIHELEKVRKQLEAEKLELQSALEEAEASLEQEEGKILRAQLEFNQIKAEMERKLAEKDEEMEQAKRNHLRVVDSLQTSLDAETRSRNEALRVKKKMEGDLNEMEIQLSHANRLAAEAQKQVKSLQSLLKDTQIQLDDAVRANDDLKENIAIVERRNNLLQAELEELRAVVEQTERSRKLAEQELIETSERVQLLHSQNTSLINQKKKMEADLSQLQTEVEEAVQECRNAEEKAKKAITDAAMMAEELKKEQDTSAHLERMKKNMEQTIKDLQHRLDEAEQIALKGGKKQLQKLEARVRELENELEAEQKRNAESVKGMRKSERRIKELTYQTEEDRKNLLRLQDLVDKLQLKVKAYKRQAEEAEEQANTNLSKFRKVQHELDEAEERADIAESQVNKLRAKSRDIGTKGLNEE
Sequence of Bovine cardiac myosin (P85100 whole entry partner): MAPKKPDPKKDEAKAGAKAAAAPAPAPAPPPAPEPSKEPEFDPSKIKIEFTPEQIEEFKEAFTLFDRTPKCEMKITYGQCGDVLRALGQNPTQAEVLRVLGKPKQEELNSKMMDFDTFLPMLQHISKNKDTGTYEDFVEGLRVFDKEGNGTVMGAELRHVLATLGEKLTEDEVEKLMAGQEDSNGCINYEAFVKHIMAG
Sequence of Bovine cardiac myosin (Q3SZE5 whole entry partner): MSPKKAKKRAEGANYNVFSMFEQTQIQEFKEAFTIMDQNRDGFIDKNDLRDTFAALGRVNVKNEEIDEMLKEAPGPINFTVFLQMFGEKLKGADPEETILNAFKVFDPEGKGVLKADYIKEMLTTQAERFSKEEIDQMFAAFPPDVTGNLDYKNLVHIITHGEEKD

| SMILES | Ki (Bovine cardiac myosin) | Ratio CMMII:NMII Ki/EC50 (Bovine cardiac myosin) | Photostability 4 hours [1] | Photostability 24 hours [1] | Photostability Dark (24 h) [1] | Ki (Rabbit skeletal myosin) |
| --- | --- | --- | --- | --- | --- | --- |
| Cc1cc(N2CC[C@@]3(O)C(=O)c4cc(C(F)(F)F)ccc4N=C23)on1 [BPN-0027237] | 50 µM | 4.5 | 79.8% | 15.8% | 82.7% | 6.7 µM |
| Cc1cc(N2CC[C@@]3(O)C(=O)c4cc(C)c(C(F)(F)F)cc4N=C23)on1 [BPN-0027346] | 33 µM | 6.9 | 97.7% | 98.7% | 98.1% | 2 µM |
| Cc1cc2c(cc1C)C(=O)[C@]1(O)CCN(c3ccc4c(c3)NCCS4)C1=N2 [BPN-0028922] | 9.7 µM | 8.8 | 86.1% | 27.7% | 94.8% | 0.77 µM |
| Cc1ccc2cc(N3CC[C@@]4(O)C(=O)c5cc(C)sc5N=C34)ccc2n1 [BPN-0028898] | 95 µM | 31.7 | 93.4% | 58.1% | 96.4% | 1.9 µM |
| Cc1cc2c(cc1C)C(=O)[C@]1(O)CCN(c3ccc4ncc(CN(C)C)cc4c3)C1=N2 [BPN-0028866] |  | NMII-sel | 77.8% | 2.9% | 97.8% | 400 µM |
| O=C1c2c(sc3c2CCCC3)N=C2N(c3ccccc3)CC[C@@]12O [BPN-0027043] |  | NMII-sel | 97.7% | 72.3% | >99% | 15 µM |
| Cc1sc2c(c1C)C(=O)[C@]1(O)CCN(c3ccc(I)cc3)C1=N2 [BPN-0027081] | 9 µM | 8.2 | 97.0% | 46.3% | 96.9% | 0.29 µM |
| Cc1cc2c(cc1C)C(=O)[C@]1(O)CCN(c3cnc4c(c3)NCCO4)C1=N2 [BPN-0028734] | 15 µM | 5.0 | 76% | <1% | 96.3% | 2.9 µM |
| Cc1cc2c(cc1C)C(=O)[C@]1(O)CCN(c3ccc4nc(C)c(C)cc4c3)C1=N2 [BPN-0028868] | 24 µM | 31.6 | 46.7% | 43.3% | 98.9% | 0.23 µM |
| Cc1cc2c(cc1C)C(=O)[C@]1(O)CCN(c3cnc4c(c3)OCCN4)C1=N2 [BPN-0028821] | 12 µM | 12.5 | 89.8% | 29.1% | 98.5% | 0.77 µM |
| Cc1cc2c(cc1C)C(=O)[C@]1(O)CCN(c3cnc4sccc4c3)C1=N2 [BPN-0027489] | 26 µM | 33.3 | 76.1% | 8.5% | >99% | 0.94 µM |

The next lines start with the values.

| Ki (Bovine cardiac myosin) | Ratio CMMII:NMII Ki/EC50 (Bovine cardiac myosin) | Photostability 4 hours [1] | Photostability 24 hours [1] | Photostability Dark (24 h) [1] | Ki (Rabbit skeletal myosin) | SMILES |
| --- | --- | --- | --- | --- | --- | --- |
| 73 µM | 25.2 | >99% | 94.2% | >99% | 2.6 µM | COc1cc(N2CC[C@@]3(O)C(=O)c4cc(F)c(C)cc4N=C23)ccn1 [BPN-0026745] |
|  | NMII-sel | 96.9% | 86.4% | >99% | 0.82 µM | Cc1ccc2c(c1)C(=O)[C@]1(O)CCN(c3ccc4c(C)noc4c3)C1=N2 [BPN-0027374] |
|  | NMII-sel | 58.8% | 44.3% | >99% | 0.68 µM | Cc1ccc2c(c1)C(=O)[C@]1(O)CCN(c3cc4cccnc4s3)C1=N2 [BPN-0027469] |
| 40 µM | 7.0 | 93.3% | 61.4% | 93.5% | 3.4 µM | COc1cc(N2CC[C@@]3(O)C(=O)c4cc(Cl)ccc4N=C23)ccn1 [BPN-0026621] |
| 21 µM | 3.6 | 90.8% | 67.7% | 95.5% | 2.7 µM | Cc1ccc2c(c1)C(=O)[C@]1(O)CCN(c3ccc4c(c3)OCCN4)C1=N2 [BPN-0027412] |
| 200 µM | 3.8 | 75.7% | 1.6% | >99% | 7.5 µM | Cc1ccc2c(c1)C(=O)[C@]1(O)CCN(c3ccc4cncn4c3)C1=N2 [BPN-0027406] |
| 31 µM | 11.5 | 97.2% | 85.0% | >99% | 4.6 µM | Cc1cc2c(s1)N=C1N(c3ccc4ncccc4c3)CC[C@@]1(O)C2=O [BPN-0027216] |
| 30 µM | 13.6 | 98.5% | 90.4% | >99% | 3.5 µM | Cc1ccc2c(c1)C(=O)[C@]1(O)CCN(c3ccc(C#N)c(C)c3)C1=N2 [BPN-0026324] |
| 29 µM | 33.3 | 30.3% | <1% | 97.7% | 1.5 µM | Cc1cc2c(cc1C)C(=O)[C@]1(O)CCN(c3ccc4ccoc4c3)C1=N2 [BPN-0026664] |
| 36 µM | 22.5 | 77.4% | <1% | 91.0% | 2.5 µM | Cc1cc2c(cc1F)C(=O)[C@]1(O)CCN(c3ccc4ccoc4c3)C1=N2 [BPN-0026619] |
| 110 µM | 3.1 | 94.3% | 82.2% | 97.3% | 33 µM | Cn1cc(N2CC[C@@]3(O)C(=O)c4cc(C(F)(F)F)ccc4N=C23)cn1 [BPN-0026413] |
|  | NMII-sel | 80.9% | 62.7% | 94.2% | 3 µM | COc1ncc(N2CC[C@@]3(O)C(=O)c4cc(C)c(C)cc4N=C23)cc1Cl [BPN-0028820] |
|  | NMII-sel | 97.4% | 88.4% | 98.4% | 12 µM | CCc1cc(N2CC[C@@]3(O)C(=O)c4cc(C)c(C)cc4N=C23)ccn1 [BPN-0028864] |
| 60 µM | 7.5 | 88.4% | 25.4% | 97.3% | 1.9 µM | Cc1cc(C)c2c(c1)N=C1N(c3ccc4ncccc4c3)CC[C@@]1(O)C2=O [BPN-0028697] |
|  | NMII-sel | 92.2% | 22.8% | >99% | 23 µM | Cc1cc2c(cc1C)C(=O)[C@]1(O)CCN(c3cccc(Cl)c3)C1=N2 [BPN-0026500] |
